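Exposure lasted 48 hours, with cells grown in 96-well plates and compounds tested at five concentrations. Definition used: TGI = concentration required for complete inhibition of growth.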
Key:
Assay in all cases: inhibition of tumour cell growth, NCI panel, 48 h
HCC-2998 colon = system: HCC-2998 colon
COLO 205 colon = system: COLO 205 colon
DU-145 prostate = system: DU-145 prostate
786-0 renal = system: 786-0 renal
TK-10 renal = system: TK-10 renal
ACHN renal = system: ACHN renal
SNB-75 CNS = system: SNB-75 CNS
KM12 colon = system: KM12 colon
CAKI-1 renal = system: CAKI-1 renal
BT-549 breast = system: BT-549 breast
RPMI-8226 leukemia = system: RPMI-8226 leukemia
NCI-H460 lung = system: NCI-H460 lung
NCI-H23 lung = system: NCI-H23 lung
A498 renal = system: A498 renal
NCI-H226 lung = system: NCI-H226 lung
M14 melanoma = system: M14 melanoma
UACC-62 melanoma = system: UACC-62 melanoma
SK-MEL-5 melanoma = system: SK-MEL-5 melanoma
RXF 393 renal = system: RXF 393 renal
EKVX NSCLC = system: EKVX NSCLC
HL-60(TB) leukemia = system: HL-60(TB) leukemia
HT29 colon = system: HT29 colon
OVCAR-3 ovarian = system: OVCAR-3 ovarian
MCF7 breast = system: MCF7 breast
HS 578T breast = system: HS 578T breast
NCI-H522 lung = system: NCI-H522 lung
MALME-3M melanoma = system: MALME-3M melanoma
SW-620 colon = system: SW-620 colon
A549 NSCLC = system: A549 NSCLC
K-562 leukemia = system: K-562 leukemia
LOX IMVI melanoma = system: LOX IMVI melanoma
T-47D breast = system: T-47D breast
OVCAR-8 ovarian = system: OVCAR-8 ovarian
HCT-15 colon = system: HCT-15 colon
MDA-MB-435 = system: MDA-MB-435
MDA-MB-231 breast = system: MDA-MB-231 breast
NCI/ADR-RES ovarian = system: NCI/ADR-RES ovarian
PC-3 prostate = system: PC-3 prostate
SN12C renal = system: SN12C renal
UO-31 renal = system: UO-31 renal
SF-268 CNS = system: SF-268 CNS
HCT-116 colon = system: HCT-116 colon
HOP-92 NSCLC = system: HOP-92 NSCLC
SNB-19 CNS = system: SNB-19 CNS
OVCAR-4 ovarian = system: OVCAR-4 ovarian
IGROV1 ovarian = system: IGROV1 ovarian
U251 CNS = system: U251 CNS
SK-MEL-2 melanoma = system: SK-MEL-2 melanoma
SF-295 CNS = system: SF-295 CNS
OVCAR-5 ovarian = system: OVCAR-5 ovarian
MDA-N = system: MDA-N
SK-MEL-28 melanoma = system: SK-MEL-28 melanoma
HOP-62 NSCLC = system: HOP-62 NSCLC
CCRF-CEM leukemia = system: CCRF-CEM leukemia
UACC-257 melanoma = system: UACC-257 melanoma
SR leukemia = system: SR leukemia
MOLT-4 leukemia = system: MOLT-4 leukemia
SF-539 CNS = system: SF-539 CNS
SK-OV-3 ovarian = system: SK-OV-3 ovarian

SMILES: CCN(CC)CCOC(c1cc(OC)ccc1OC)c1ccc2n1-c1ccccc1OC2 (centres undefined)
- TGI (HCC-2998 colon): 20.9 µM
- TGI (COLO 205 colon): 17.9 µM
- TGI (DU-145 prostate): 60.7 µM
- TGI (786-0 renal): 36.9 µM
- TGI (TK-10 renal): 25.4 µM
- TGI (ACHN renal): 26.7 µM
- TGI (SNB-75 CNS): 17.3 µM
- TGI (KM12 colon): 34.2 µM
- TGI (CAKI-1 renal): 30 µM
- TGI (BT-549 breast): 25.2 µM
- TGI (RPMI-8226 leukemia): 16 µM
- TGI (NCI-H460 lung): 26.2 µM
- TGI (NCI-H23 lung): 25.6 µM
- TGI (A498 renal): 24.1 µM
- TGI (NCI-H226 lung): 14.6 µM
- TGI (M14 melanoma): 33.2 µM
- TGI (UACC-62 melanoma): 7.75 µM
- TGI (SK-MEL-5 melanoma): 22.2 µM
- TGI (RXF 393 renal): 21.4 µM
- TGI (EKVX NSCLC): 33.1 µM
- TGI (HL-60(TB) leukemia): 30.4 µM
- TGI (HT29 colon): 13.9 µM
- TGI (OVCAR-3 ovarian): 31 µM
- TGI (MCF7 breast): 30.2 µM
- TGI (HS 578T breast): 30.9 µM
- TGI (NCI-H522 lung): 30 µM
- TGI (MALME-3M melanoma): 35.8 µM
- TGI (SW-620 colon): 21.1 µM
- TGI (A549 NSCLC): 26.9 µM
- TGI (K-562 leukemia): 23.5 µM
- TGI (LOX IMVI melanoma): 23.6 µM
- TGI (T-47D breast): 51.3 µM
- TGI (OVCAR-8 ovarian): 25.9 µM
- TGI (HCT-15 colon): 23.6 µM
- TGI (MDA-MB-435): 22.2 µM
- TGI (MDA-MB-231 breast): 5.46 µM
- TGI (NCI/ADR-RES ovarian): 13.9 µM
- TGI (PC-3 prostate): 27.4 µM
- TGI (SN12C renal): 7.69 µM
- TGI (UO-31 renal): 23 µM
- TGI (SF-268 CNS): 28.8 µM
- TGI (HCT-116 colon): > 100 µM
- TGI (HOP-92 NSCLC): 9.37 µM
- TGI (SNB-19 CNS): 31.2 µM
- TGI (OVCAR-4 ovarian): 31.9 µM
- TGI (IGROV1 ovarian): 19.7 µM
- TGI (U251 CNS): 28.1 µM
- TGI (SK-MEL-2 melanoma): 26 µM
- TGI (SF-295 CNS): 23.9 µM
- TGI (OVCAR-5 ovarian): 37.4 µM
- TGI (MDA-N): 26.5 µM
- TGI (SK-MEL-28 melanoma): 29 µM
- TGI (HOP-62 NSCLC): 40.2 µM
- TGI (CCRF-CEM leukemia): 17.2 µM
- TGI (UACC-257 melanoma): 30.6 µM

SMILES: Cc1cc2c(c(C(=O)NCCC(=O)O)c1)Oc1c(cc(C)cc1C(=O)NCCC(=O)O)S2
- TGI (HCC-2998 colon): > 100 µM
- TGI (COLO 205 colon): > 100 µM
- TGI (DU-145 prostate): > 100 µM
- TGI (786-0 renal): > 100 µM
- TGI (TK-10 renal): > 100 µM
- TGI (ACHN renal): > 100 µM
- TGI (SNB-75 CNS): > 100 µM
- TGI (KM12 colon): > 100 µM
- TGI (CAKI-1 renal): > 100 µM
- TGI (BT-549 breast): > 100 µM
- TGI (RPMI-8226 leukemia): > 100 µM
- TGI (NCI-H23 lung): > 100 µM
- TGI (NCI-H226 lung): > 100 µM
- TGI (M14 melanoma): > 100 µM
- TGI (UACC-62 melanoma): > 100 µM
- TGI (RXF 393 renal): > 100 µM
- TGI (EKVX NSCLC): > 100 µM
- TGI (HT29 colon): > 100 µM
- TGI (OVCAR-3 ovarian): > 100 µM
- TGI (MCF7 breast): > 100 µM
- TGI (HS 578T breast): > 100 µM
- TGI (NCI-H522 lung): > 100 µM
- TGI (MALME-3M melanoma): > 100 µM
- TGI (SR leukemia): > 100 µM
- TGI (MOLT-4 leukemia): > 100 µM
- TGI (SW-620 colon): > 100 µM
- TGI (A549 NSCLC): > 100 µM
- TGI (K-562 leukemia): > 100 µM
- TGI (LOX IMVI melanoma): > 100 µM
- TGI (T-47D breast): > 100 µM
- TGI (OVCAR-8 ovarian): > 100 µM
- TGI (HCT-15 colon): > 100 µM
- TGI (MDA-MB-435): > 100 µM
- TGI (MDA-MB-231 breast): > 100 µM
- TGI (NCI/ADR-RES ovarian): > 100 µM
- TGI (PC-3 prostate): > 100 µM
- TGI (SN12C renal): > 100 µM
- TGI (SF-539 CNS): > 100 µM
- TGI (SF-268 CNS): > 100 µM
- TGI (HCT-116 colon): > 100 µM
- TGI (HOP-92 NSCLC): > 100 µM
- TGI (SNB-19 CNS): > 100 µM
- TGI (OVCAR-4 ovarian): > 100 µM
- TGI (SK-OV-3 ovarian): > 100 µM
- TGI (IGROV1 ovarian): > 100 µM
- TGI (U251 CNS): > 100 µM
- TGI (SK-MEL-2 melanoma): > 100 µM
- TGI (SF-295 CNS): > 100 µM
- TGI (OVCAR-5 ovarian): > 100 µM
- TGI (MDA-N): > 100 µM
- TGI (SK-MEL-28 melanoma): > 100 µM
- TGI (HOP-62 NSCLC): > 100 µM
- TGI (CCRF-CEM leukemia): > 100 µM
- TGI (UACC-257 melanoma): > 100 µM

Reference: PubChem BioAssay (NCI)
